Reference: publication PMC12186843, “Targeting GABAergic Hypofunction Associated with Schizophrenia: Identification of α1β2γ2GABA‑A Receptor Ligands with Neuroprotective and Antipsychotic Properties” (ACS Chemical Neuroscience, 2025)

Tests used:
SH-SY5Y cells [1] = assay: ROS generation after hydrogen peroxide (CellROX); type: cell-based, human; details: 50 μM pretreatment 1 h, then H2O2 300 μM 1 h
Protocol: (§1) 7 (A). Effect of 6-Hydroxydopamine (6-OHDA) on intracellular calcium concentration [Ca^2+] determined by Fluo-4 AM. After pretreatment with tested compounds (50 μM) or vehicle (0.5% DMSO, v/v) for 1 h, the cells were incubated with 6-Hydroxydopamine (6-OHDA, 250 μM) for 1 h. 6-OHDA control: cells treated with 250 μM of 6-OHDA. […]. DMSO control: cells treated with 0.5% DMSO only. Data are presented as the mean ± SD from 2–3 independent experiments. Experiments were carried on with ImageXpress Micro XLS (Molecular Devices). (B) The level of ROS generation was determined by Cell ROX dye. After pretreatment with tested compounds (50 μM) or vehicle (0.5% DMSO, v/v) for 1 h, the cells were incubated with hydrogen peroxide (H2O2, 300 μM) for 1 h. H2O2 control: cells treated with H2O2 (300 μM). DMSO control: cells treated with 0.5% DMSO only. Data are presented as the mean ± SD from 2–3 independent experiments. Experiments were carried on with the ImageXpress Micro XLS (Molecular Devices).
The SH-SY5Y human neuroblastoma cell line was maintained according to established protocols. […]
Cellular reactive oxygen species (ROS) levels were determined using the CellROX Deep Red Reagent (Thermo Fisher). […] The results were expressed as a percentage relative to the control (DMSO). Fluorescence intensity was measured using the ImageXpress Micro XLS system (Molecular Devices).

[2] = test system: P-glycoprotein (P-gp, MDR1); assay: A–B and B–A permeability assay in MDR1-MDCKII cell line; details: dog
Protocol: (§2) The A–B and B–A permeability assay using the MDR1-MDCKII cell line was conducted at Eurofins Discovery according to a well-established protocol.

MDR1-MDCKII cell line = assay: as above; details: MDCK-MDR1 permeability assay
Protocol: as §2

[3] = Metabolic stability in mouse liver microsomes; type: in vitro ADME
SH-SY5Y cells [4] = assay: PrestoBlue cell viability assay; type: cell-based; details: Table S2, 24 h
Protocol: Cell viability was determined using the Presto Blue reagent (ThermoFisher) following the manufacturer’s instructions.
(§3) 1. Cytotoxicity studies for selected compounds
Table S1. The viability of the cells SH-SY5Y after treatment with tested compounds for 24 the results are expressed as a percentage of dead cells with luminescence ToxiLight Assay. The results are expressed as a per cent of control with whole […]
percentage of live cells with fluorescence PrestoBlue Assay. The results are expressed as a per cent of vehicle (DMSO).

[5] = Metabolic stability in human liver microsomes; type: in vitro ADME
Protocol: In Eppendorf tubes, potassium phosphate buffer (pH 7.4), a working solution of the test compound, and human liver microsomes (final concentration: 0.4 mg/mL, Sigma-Aldrich) were combined. The mixture was incubated at 37 °C with shaking for 15 min in a thermoblock. Following this, an NADPH regeneration system (Sigma-Aldrich) was added to the mixture, which was subsequently incubated with shaking at 37 °C for various time intervals (5, 15, 30, 60, 90, 120, 150, 180, 210, and 240 min). A control experiment was run in parallel, replacing the regeneration fraction with phosphate buffer. At the designated incubation times, an internal standard (levallorphan, Sigma-Aldrich) was added to each sample. To terminate the reaction, 70% perchloric acid (Sigma-Aldrich) was added, and the samples were centrifuged at 6000 rpm for 10 min at 4 °C. The resulting supernatants were collected and subjected to LC-MS/MS analysis. Each sample was analyzed in duplicate.

[6] = Metabolic stability in rat liver microsomes; type: in vitro ADME
SH-SY5Y cells [7] = assay: ToxiLight assay (cell membrane damage); type: cell-based; details: Table S1, 24 h
Protocol: Damage to the cell membrane was assessed using the bioluminescent ToxiLight bioassay (Lonza), a profound method for detecting cell toxicity. Following 24 h of treatment, 5 μL of the supernatant above the sediment was transferred to a 384-well plate (PerkinElmer). Subsequently, 20 μL of Adenylate Kinase Detection Reagent (AKDR) was added to each well. Luminescence was recorded after a 10 min incubation period using a POLARstar Omega plate reader (BMG Labtech). Results are presented as a percentage relative to the control sample (cells lysed), reflecting the proportion of dead cells compared to the control.
as §3
Table S1. The viability of the cells SH-SY5Y after treatment with tested compounds for 24 the results are expressed as a percentage of dead cells with luminescence ToxiLight Assay. The results are expressed as a per cent of control with whole lysis cells. N.C. not countable […]
Table S2. The viability of the cells SH-SY5Y after treatment with tested compounds for 24 h the results are expressed as a percentage of live cells with fluorescence PrestoBlue Assay. The results are expressed as a per cent of vehicle (DMSO). […]

α1β2γ2 GABA-A receptor = biological target: T1, α1β2γ2 GABA-A receptor (Homo sapiens, UniProt P14867+P18507); assay: Electrophysiological studies (QPatch16X automated patch-clamp), PAM efficacy; type: cell-based
T1 construct: expressed in transfected cells

SH-SY5Y cells [8] = assay: Intracellular calcium concentration after 6-OHDA (Fluo-4); type: cell-based, human; details: 50 μM pretreatment 1 h, then 6-OHDA 250 μM 1 h
Protocol: as §1
The SH-SY5Y human neuroblastoma cell line was maintained according to established protocols. The cells, obtained from the American Type Culture Collection (ATCC), were cultured in Dulbecco’s Modified Eagle’s Medium (DMEM, high glucose; Thermo Fisher), supplemented with 10% fetal bovine serum (Thermo Fisher), 100 IU/ml penicillin (Merck), and 100 μg/mL streptomycin (Merck). They were grown in 75 cm^2 flasks (Nunc) at 37 °C in a humidified atmosphere containing 5% CO2. For compound evaluation, SH-SY5Y cells were plated in 96-well plates (Falcon) at a density of 2 × 10^4 cells per well. The cells were allowed to adhere and grow for 24 h in an incubator set to 37 °C and 5% CO2 before starting the experiments. Stock solutions of both test and reference compounds were prepared at a concentration of 10^–2 M. A minimum of 1 mg of each compound was dissolved in dimethyl sulfoxide (DMSO). Serial dilutions were made in DMSO, then further diluted in PBS, mixed, and added to the cell culture medium.
The intracellular Ca^2+ levels were assessed using a homogeneous cell-based assay with the Fluo-4 Direct Calcium Assay Kit (Thermo Fisher). Following incubation with the tested compounds, the supernatant was discarded, and the cells were incubated with 1 μM Fluo-4/AM in FluoroBrite DMEM (Thermo Fisher) for 1 h at 37 °C. The results were expressed as a percentage relative to the control (DMSO). Fluorescence intensity was recorded using the ImageXpress Micro XLS system (Molecular Devices).

PAMPA permeability assay = type: in vitro ADME; details: PBS pH 7.4, 100 μM, 5 h, zolpidem tested as tartrate
Protocol: PAMPA. The precoated PAMPA Plate System Gentest, obtained from Corning (Tewksbury, MA, USA), was used for the permeability study. The system includes a 96-well receiver filter plate precoated with structured phospholipid layers and a matching donor microplate. Stock solutions of the test compounds and reference drugs were prepared in PBS buffer (pH 7.4) at a final concentration of 100 μM. Each compound solution (200 μL) was added to the donor wells and incubated at room temperature for 5 h. The quantity of molecules that penetrated from the donor wells to the acceptor wells through the phospholipid membrane was determined using UPLC-MS spectrometry (Waters ACQUITY TQD system with the TQ Detector, Waters, Milford, USA) with an internal standard. Permeability coefficients (Pe, cm/s) were calculated according to the formula provided by the manufacturer.

[9] = literature value; cited from earlier work
GABA-A receptor = assay: Radioligand binding at the GABA-A receptor; parameters: species or system rat; details: mean of two-three independent experiments; read-out: GABA-A Ki ± SEM
Protocol: The study was conducted in accordance with previously established protocols, and performed in duplicate. Rat brains were homogenized and prepared following the described methodologies. The assay was carried out directly on 96-well microplates containing 50 mM Tris-HCl buffer (pH 7.4) in a total volume of 300 μL. […] To determine nonspecific binding, 100 μM GABA was included in the mixture. The 96-well microplates were incubated at 0 °C for 10 min, followed by rapid filtration through FilterMate B glass fiber filters (PerkinElmer, USA) using a Harvester-96 MACH III FM (Tomtec, USA). The filters were gently dried in a microwave and sealed in plastic bags (PerkinElmer, USA). Each filter was then immersed in 10 mL of Ultima Gold MV liquid scintillation cocktail (PerkinElmer, USA). […] Ki values were calculated using the Cheng and Prusoff equation, and statistical analyses were conducted using GraphPad Prism (version 4.0, San Diego, CA, USA)

T1 sequence (P14867 28-456): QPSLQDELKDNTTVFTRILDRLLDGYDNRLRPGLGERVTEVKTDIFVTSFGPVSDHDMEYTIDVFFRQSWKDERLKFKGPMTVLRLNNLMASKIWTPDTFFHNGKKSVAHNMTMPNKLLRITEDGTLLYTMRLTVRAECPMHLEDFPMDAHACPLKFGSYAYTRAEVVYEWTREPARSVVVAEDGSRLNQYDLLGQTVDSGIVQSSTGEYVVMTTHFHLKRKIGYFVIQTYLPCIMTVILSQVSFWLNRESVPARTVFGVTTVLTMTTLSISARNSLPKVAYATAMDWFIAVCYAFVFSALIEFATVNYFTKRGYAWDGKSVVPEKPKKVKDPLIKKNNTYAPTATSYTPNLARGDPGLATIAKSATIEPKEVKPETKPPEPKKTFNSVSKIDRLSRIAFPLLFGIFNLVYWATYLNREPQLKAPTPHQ
T1 sequence (P47870 25-512 partner limits assumed): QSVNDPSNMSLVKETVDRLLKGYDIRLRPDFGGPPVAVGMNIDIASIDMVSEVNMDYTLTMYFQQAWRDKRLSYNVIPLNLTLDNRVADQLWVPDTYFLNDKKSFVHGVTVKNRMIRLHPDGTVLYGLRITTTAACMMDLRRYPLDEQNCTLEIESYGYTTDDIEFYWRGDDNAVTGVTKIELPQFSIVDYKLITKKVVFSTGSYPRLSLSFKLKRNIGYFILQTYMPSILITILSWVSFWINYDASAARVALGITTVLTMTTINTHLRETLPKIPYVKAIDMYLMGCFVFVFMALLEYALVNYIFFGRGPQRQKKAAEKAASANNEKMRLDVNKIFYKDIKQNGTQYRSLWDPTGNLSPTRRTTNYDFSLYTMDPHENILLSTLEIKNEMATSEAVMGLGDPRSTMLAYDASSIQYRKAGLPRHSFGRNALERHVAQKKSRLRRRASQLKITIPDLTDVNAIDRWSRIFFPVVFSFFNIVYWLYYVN
T1 sequence (P18507 40-475): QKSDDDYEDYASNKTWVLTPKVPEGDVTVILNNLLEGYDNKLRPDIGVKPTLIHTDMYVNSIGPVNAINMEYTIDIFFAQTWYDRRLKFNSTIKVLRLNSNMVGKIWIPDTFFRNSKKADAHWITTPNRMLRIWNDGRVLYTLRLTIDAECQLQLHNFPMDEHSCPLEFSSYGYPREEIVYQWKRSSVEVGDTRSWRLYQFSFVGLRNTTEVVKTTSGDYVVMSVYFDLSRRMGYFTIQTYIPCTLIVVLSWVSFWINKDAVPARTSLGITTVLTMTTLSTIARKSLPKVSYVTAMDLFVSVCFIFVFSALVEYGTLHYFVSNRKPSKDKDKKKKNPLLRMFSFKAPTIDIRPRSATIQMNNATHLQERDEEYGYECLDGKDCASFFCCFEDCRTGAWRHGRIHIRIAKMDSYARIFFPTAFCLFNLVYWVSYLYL

Cc1ccc2nc(-c3ccc(F)cc3)c(CC(=O)N3CC(C)NC(C)C3)n2c1 (stereo not shown) [Compound 6, 1-(3,5-Dimethylpiperazin-1-yl)-2-[2-(4-fluorophenyl)-6-methylimidazo[1,2-a]pyridin-3-yl]ethan-1-one]
Decrease of ROS levels (SH-SY5Y cells [1]): 32%
Papp A→B at 10 μM ([2]; MDCK-MDR1, pH 7.4): 14.5 ×10⁻⁶ cm/s
Papp B→A at 10 μM ([2]; MDCK-MDR1, pH 7.4): 24.6 ×10⁻⁶ cm/s
efflux ratio at 10 μM ([2]; MDCK-MDR1, pH 7.4, Efflux ratio (Paap B–A/A–B), pH 7.4/7.4, 6 and 17 at 10 μM): 1.68
Substrate for P-glycoprotein (P-gp) efflux (MDR1-MDCKII cell line): possible substrate
t0,5 MLMs [3]: 58 min
remaining at 0.25 h ([3]; mouse, liver microsomes, pH 7.4, after 15 min of biotransformation, read-out: % remaining of the parent compound MLMs): 68%
microsomal CLint ([3]; mouse, liver microsomes, pH 7.4, read-out: Clint MLMs): < 40 µL/min/mg
X [%], percentage of live cells, PrestoBlue Assay (per cent of vehicle DMSO) (SH-SY5Y cells [4]; 1E-05 M): 17%
X [%], percentage of live cells, PrestoBlue Assay (per cent of vehicle DMSO) (SH-SY5Y cells [4]; 1E-06 M): 16%
X [%], percentage of live cells, PrestoBlue Assay (per cent of vehicle DMSO) (SH-SY5Y cells [4]; 1E-07 M): 17%
X [%], percentage of live cells, PrestoBlue Assay (per cent of vehicle DMSO) (SH-SY5Y cells [4]; 1E-08 M): 18%
X [%], percentage of live cells, PrestoBlue Assay (per cent of vehicle DMSO) (SH-SY5Y cells [4]; 1E-09 M): 17%
X [%], percentage of live cells, PrestoBlue Assay (per cent of vehicle DMSO) (SH-SY5Y cells [4]; 3E-05 M): 17%
X [%], percentage of live cells, PrestoBlue Assay (per cent of vehicle DMSO) (SH-SY5Y cells [4]; 3E-06 M): 16%
t0,5 HLMs [5]: >60 min
remaining at 0.25 h ([5]; human, liver microsomes, pH 7.4, after 15 min of biotransformation, read-out: % remaining of the parent compound HLMs): 74%
microsomal CLint ([5]; human, liver microsomes, pH 7.4, read-out: Clint HLMs): < 40 µL/min/mg
t0,5 RLMs [6]: 44 min
remaining at 0.25 h ([6]; rat, liver microsomes, pH 7.4, after 15 min of biotransformation, read-out: % remaining of the parent compound RLMs): 70%
microsomal CLint ([6]; rat, liver microsomes, pH 7.4, read-out: Clint RLMs): < 40 µL/min/mg
X [%], percentage of dead cells, ToxiLight Assay (per cent of control with whole lysis cells) (SH-SY5Y cells [7]; 1E-04 M): 74%
X [%], percentage of dead cells, ToxiLight Assay (per cent of control with whole lysis cells) (SH-SY5Y cells [7]; 1E-05 M): 93%
X [%], percentage of dead cells, ToxiLight Assay (per cent of control with whole lysis cells) (SH-SY5Y cells [7]; 1E-06 M): 109%
X [%], percentage of dead cells, ToxiLight Assay (per cent of control with whole lysis cells) (SH-SY5Y cells [7]; 1E-07 M): 97%
X [%], percentage of dead cells, ToxiLight Assay (per cent of control with whole lysis cells) (SH-SY5Y cells [7]; 1E-08 M): 108%
X [%], percentage of dead cells, ToxiLight Assay (per cent of control with whole lysis cells) (SH-SY5Y cells [7]; 1E-09 M): 101%
X [%], percentage of dead cells, ToxiLight Assay (per cent of control with whole lysis cells) (SH-SY5Y cells [7]; 3E-05 M): 87%
X [%], percentage of dead cells, ToxiLight Assay (per cent of control with whole lysis cells) (SH-SY5Y cells [7]; 3E-06 M): 105%
EC50 (α1β2γ2 GABA-A receptor): 872 ± 77 nM
Reduction of intracellular calcium levels (SH-SY5Y cells [8]): 28%

Cc1ccc(-c2nc3ccc(C)cn3c2CC(=O)N(C)C)cc1 [zolpidem, reference compound]
Permeability Pe ± SD (PAMPA permeability assay): 21.6 ± 1.26 ·10^–6 cm/s
plasma half-life (t0,5) in humans [9]: 2–3 h and ≈ 2 h
X [%], percentage of dead cells, ToxiLight Assay (per cent of control with whole lysis cells) (SH-SY5Y cells [7]; 1E-04 M): 71%
X [%], percentage of dead cells, ToxiLight Assay (per cent of control with whole lysis cells) (SH-SY5Y cells [7]; 1E-05 M): 92%
X [%], percentage of dead cells, ToxiLight Assay (per cent of control with whole lysis cells) (SH-SY5Y cells [7]; 1E-06 M): 98%
X [%], percentage of dead cells, ToxiLight Assay (per cent of control with whole lysis cells) (SH-SY5Y cells [7]; 1E-07 M): 100%
X [%], percentage of dead cells, ToxiLight Assay (per cent of control with whole lysis cells) (SH-SY5Y cells [7]; 1E-08 M): 101%
X [%], percentage of dead cells, ToxiLight Assay (per cent of control with whole lysis cells) (SH-SY5Y cells [7]; 1E-09 M): 100%
X [%], percentage of dead cells, ToxiLight Assay (per cent of control with whole lysis cells) (SH-SY5Y cells [7]; 3E-05 M): 90%
X [%], percentage of dead cells, ToxiLight Assay (per cent of control with whole lysis cells) (SH-SY5Y cells [7]; 3E-06 M): 96%
Reduction of intracellular calcium levels (SH-SY5Y cells [8]): 47%
Ki (GABA-A receptor): 37.8 ± 2.7 nM
